Data published in publication PMC8872763 (Proceedings of the National Academy of Sciences of the …, 2022).

Molecular target: glucose oxidase (GOX) (Aspergillus niger, UniProt P13006)
Assay: time-resolved fluorescence of protein-bound flavin
Assay type: binding
Conditions: 390-nm excitation

Sequence of glucose oxidase (GOX) (P13006 23-605 limits assumed): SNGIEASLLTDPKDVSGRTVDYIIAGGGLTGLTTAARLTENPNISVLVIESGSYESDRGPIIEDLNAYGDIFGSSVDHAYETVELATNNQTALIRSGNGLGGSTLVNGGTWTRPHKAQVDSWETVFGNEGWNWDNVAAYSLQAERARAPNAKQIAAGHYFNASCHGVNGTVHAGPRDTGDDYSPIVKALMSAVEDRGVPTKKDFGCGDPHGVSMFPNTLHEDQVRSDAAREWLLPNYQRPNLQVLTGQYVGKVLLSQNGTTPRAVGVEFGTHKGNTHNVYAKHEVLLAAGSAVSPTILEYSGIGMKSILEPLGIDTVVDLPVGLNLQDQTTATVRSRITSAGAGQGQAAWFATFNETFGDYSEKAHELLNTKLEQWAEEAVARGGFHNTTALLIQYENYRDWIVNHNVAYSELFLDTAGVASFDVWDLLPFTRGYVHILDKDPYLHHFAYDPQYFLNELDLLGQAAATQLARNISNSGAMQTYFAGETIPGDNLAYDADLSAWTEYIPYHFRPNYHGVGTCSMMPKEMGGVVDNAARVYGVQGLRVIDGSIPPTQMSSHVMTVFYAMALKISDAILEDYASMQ

SMILES	time-resolved fluorescence of protein-bound flavin (Kerr gate)
Cc1cc2c(cc1C)N(C[C@H](O)[C@H](O)[C@H](O)COP(=O)(O)OP(=O)(O)OC[C@H]1O[C@@H](n3cnc4c(N)ncnc43)[C@H](O)[C@@H]1O)c1[nH]c(=O)[nH]c(=O)c1N2 [FADH^−]	time-resolved fluorescence of FADH^− in GOX exhibits monophasic decay
Cc1cc2nc3c(=O)[nH]c(=O)nc-3n(C[C@H](O)[C@H](O)[C@H](O)COP(=O)(O)OP(=O)(O)OC[C@H]3O[C@@H](n4cnc5c(N)ncnc54)[C@H](O)[C@@H]3O)c2cc1C [FADox]	The fluorescence decays of FADox and FADH^− in GOX measured under the same experimental conditions
